Test results as given in patent publication US6608082B1, “Treatment of erectile dysfunction using isoquinoline compound melanocortin receptor ligands” (Lion Bioscience AG, priority 1998, dated 2003).
Read-outs that look alike come from different tables or passages of the source.

Molecular target: T1, MCR-1 (Homo sapiens, UniProt Q01726)
T1 construct: expressed in transfected cells; host or cells: HEK 293
Assay: Melanocortin receptor binding assay, competition with 125I-HP 467, HEK 293 cells expressing hMCR-1
Details: for % Disp. MC-1 10 μM: displacement of 125I-HP 467 at 10 μM isoquinoline compound; for IC50: read-out: MC-1 IC50; for % Disp. of 125I-HP 467 (first of duplicate) / % Disp. of 125I-HP 467 (second of duplicate): 10 μM isoquinoline compound; for % Disp. of 125I-HP 467 (first of duplicate): HEK 293 cells expressing MCR-1, duplicate 1; for % Disp. of 125I-HP 467 (second of duplicate): HEK 293 cells expressing MCR-1, duplicate 2
Outline: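 Intact-cell competition binding, 2.5 hr at 37 °C, in PBS/10% calf serum/1 mM CaCl2; hMCR-4 cells at 4×10^3 per tube, hMCR-1 cells at 2×10^4 per tube. Filtration on BSA/CaCl2-soaked GF/B, cold 50 mM Tris pH 7.4 washes, scintillation count.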

[1] = inhibition of binding of 125I-HP 467, HEK 293 cells expressing MCR-1
[2] = competition with 125I-HP 467, HEK 293 cells expressing MCR-1

T1 sequence (Q01726 whole entry): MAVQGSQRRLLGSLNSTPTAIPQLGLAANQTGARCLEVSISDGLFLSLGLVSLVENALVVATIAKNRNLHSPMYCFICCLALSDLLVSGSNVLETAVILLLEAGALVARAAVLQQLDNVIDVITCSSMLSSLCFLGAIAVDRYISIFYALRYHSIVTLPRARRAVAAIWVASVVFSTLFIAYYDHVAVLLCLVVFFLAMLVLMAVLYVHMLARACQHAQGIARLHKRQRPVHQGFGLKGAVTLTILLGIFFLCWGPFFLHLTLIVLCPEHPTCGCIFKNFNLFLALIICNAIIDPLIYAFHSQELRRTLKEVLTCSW

Row | SMILES | % Disp. MC-1 10 μM (first of duplicate) [%] | % Disp. MC-1 10 μM (second of duplicate) [%] | other results
1 | CNC(CN)CN1Cc2ccccc2C(CNC2CCCCC2)C1c1cc(C(F)(F)F)cc(C(F)(F)F)c1 (mixture of isomers) [TRG 2405-118] | 47.3 | 58.9 | 
2 | CCCCCNc1ccc(C2C(CNCCc3ccccc3)c3ccccc3CN2CCCCC(CN)NCc2ccccc2)cc1 (stereo not shown) [TRG 2412-3] |  |  | IC50 [1]: 360 nM
3 | CCCCNc1ccc(C2C(CNC3CCCCC3)c3ccccc3CN2CCCC(CN)NCC)cc1 (stereo not shown) [TRG 2411-204] |  |  | IC50 [1]: 150 nM
4 | CCNc1ccc(C2C(CN)c3ccccc3CN2CCCCC(CN)NCCc2ccc(OC)cc2)cc1 (stereo not shown) [TRG 2411-65] |  |  | IC50 [2]: 390 nM
5 | CNC(CN)CN1Cc2ccccc2C(CNC2CCCCC2)C1c1ccc(OC)c2ccccc12 (stereo not shown) [TRG 2405-158] | 45.6 | 45.8 | 
6 | NCCN1Cc2ccccc2C(CNC2CCCCC2)C1c1cc(Cl)cc(Cl)c1Cl (stereo not shown) [TRG 2405-7] | 50.3 | 54.8 | 
7 | CCCCCNc1ccc(C2C(CNCCc3ccccc3)c3ccccc3CN2CCCCC(CN)NC)cc1 (stereo not shown) [TRG 2412-1] |  |  | IC50 [1]: 380 nM
8 | CCCCNC(CN)CCCCN1Cc2ccccc2C(CN)C1c1ccc(NCC)cc1 (stereo not shown) [TRG 2411-61] |  |  | IC50 [2]: 110 nM
9 | NCCN1Cc2ccccc2C(CNC2CCCCC2)C1c1cccnc1 (stereo not shown) [TRG 2405-51] | 30.6 | 23.1 | 
10 | CNC(CN)CN1Cc2ccccc2C(CNC2CCCCC2)C1c1cccc2c1OCO2 (stereo not shown) [TRG 2405-98] | 20.1 | 48.3 | 
11 | NCCN1Cc2ccccc2C(CNC2CCCCC2)C1c1cccc(Br)c1 (stereo not shown) [TRG 2405-37] | 49.7 | 54.4 | 
12 | CNC(CNC(CN)CCCN1Cc2ccccc2C(CNC2CCCCC2)C1c1ccc(-c2ccccc2)cc1)Cc1ccccc1 (stereo not shown) [TRG 2411-130] |  |  | IC50 [2]: 920 nM
13 | CNC(CN)CCCCN1Cc2ccccc2C(CNC2CCCCC2)C1c1cc(Cl)cc(Cl)c1Cl (mixture of isomers) [TRG 2405-187] |  |  | % Disp. of 125I-HP 467 (first of duplicate): 64.6%; % Disp. of 125I-HP 467 (second of duplicate): 59.3%
14 | NCCN1Cc2ccccc2C(CNC2CCCCC2)C1c1cccc(CN)c1 (stereo not shown) [TRG 2405-39] | 23.2 | 16.9 | 
15 | CNC(CN)CCCN1Cc2ccccc2C(CNCCc2ccccc2)C1c1ccc(-c2ccccc2)cc1 (stereo not shown) [TRG 2411-114] |  |  | IC50 [2]: 760 nM
16 | CS(=O)(=O)c1ccc(C2C(CNC3CCCCC3)c3ccccc3CN2CCN)cc1 (stereo not shown) [TRG 2405-87] | 21.9 | 22.1 | 
17 | CNC(CN)CN1Cc2ccccc2C(CNC2CCCCC2)C1c1ccsc1 (mixture of isomers) [TRG 2405-143] | 54.6 | 50.4 | 
18 | CNC(CN)CN1Cc2ccccc2C(CNC2CCCCC2)C1c1c(F)cccc1Cl (stereo not shown) [TRG 2405-104] | 32.8 | 33.3 | 
19 | CNC(CN)CN1Cc2ccccc2C(CNC2CCCCC2)C1c1cnc2ccccc2c1 (stereo not shown) [TRG 2405-142] | 48.5 | 45.1 | 

Row | SMILES | % Disp. MC-1 10 μM (first of duplicate) [%] | % Disp. MC-1 10 μM (second of duplicate) [%] | other results
20 | NCC(CCCN1Cc2ccccc2C(CNC2CCCCC2)C1c1ccc([N+](=O)[O-])cc1)NCCc1ccccc1 (stereo not shown) [TRG 2413-14] |  |  | IC50 [1]: 1570 nM
21 | Cc1ccc(C2C(CNC3CCCCC3)c3ccccc3CN2CCN)s1 (stereo not shown) [TRG 2405-78] | 33.3 | 40.8 | 
22 | CCNc1ccc(C2C(CN)c3ccccc3CN2CCCC(CN)NCC)cc1 (mixture of isomers) [TRG 2411-176] |  |  | IC50 [1]: 220 nM
23 | CNC(CN)CN1Cc2ccccc2C(CNC2CCCCC2)C1c1cc(Cl)cc(Cl)c1Cl (stereo not shown) [TRG 2405-97] | 58.2 | 61.1 | 
24 | NCC(CCCN1Cc2ccccc2C(CNCCc2ccccc2)C1c1ccc([N+](=O)[O-])cc1)NCCc1ccccc1 (stereo not shown) [TRG 2413-13] |  |  | IC50 [1]: 1070 nM
25 | CNC(CN)CN1Cc2ccccc2C(CNC2CCCCC2)C1c1ccccc1O (stereo not shown) [TRG 2405-92] | 57.6 | 49.9 | 
26 | CCNc1ccc(C2C(CN)c3ccccc3CN2CCCCC(CN)NCc2ccccc2)cc1 (stereo not shown) [TRG 2411-66] |  |  | IC50 [2]: 110 nM
27 | CNC(CN)CCCCN1Cc2ccccc2C(CNC2CCCCC2)C1c1cc2c3c(c1O)CCCN3CCC2 (stereo not shown) [TRG 2405-264] |  |  | % Disp. of 125I-HP 467 (first of duplicate): 35%; % Disp. of 125I-HP 467 (second of duplicate): 39.4%
28 | NCCN1Cc2ccccc2C(CNC2CCCCC2)C1c1ccsc1 (stereo not shown) [TRG 2405-53] | 43.3 | 43.4 | 
29 | CCCCNc1ccc(C2C(CN)c3ccccc3CN2CCCCC(CN)NCc2ccccc2)cc1 (stereo not shown) [TRG 2411-107] |  |  | IC50 [2]: 340 nM
30 | CCCCNc1ccc(C2C(CNCCc3ccccc3)c3ccccc3CN2CCCCC(CN)NCCc2ccc(OC)cc2)cc1 (mixture of isomers) [TRG 2411-79] |  |  | IC50 [2]: 370 nM
31 | CCCCNC(CN)CCCN1Cc2ccccc2C(CN)C1c1ccc(NCC)cc1 (stereo not shown) [TRG 2411-177] |  |  | IC50 [1]: 110 nM
32 | CNC(CN)CN1Cc2ccccc2C(CNC2CCCCC2)C1c1ccc2ccccc2n1 (mixture of isomers) [TRG 2405-112] | 42.2 | 43.2 | 
33 | CNC(CN)CN1Cc2ccccc2C(CNC2CCCCC2)C1c1cccc(C)n1 (stereo not shown) [TRG 2405-171] | 63.1 | 49.7 | 
34 | CCCCOc1ccc(C2C(CNCCc3ccccc3)c3ccccc3CN2CCCCC(CN)NCc2ccccc2)cc1 (stereo not shown) [TRG 2412-12] |  |  | IC50 [1]: 540 nM
35 | NCCN1Cc2ccccc2C(CNC2CCCCC2)C1c1ccncc1 (stereo not shown) [TRG 2405-74] | 35.3 | 0 | 
36 | CNC(CNC(CN)CCCN1Cc2ccccc2C(CNCCc2ccccc2)C1c1ccc(-c2ccccc2)cc1)Cc1ccccc1 (stereo not shown) [TRG 2411-121] |  |  | IC50 [2]: 1070 nM
37 | CCCOc1ccc(C2C(CNCCc3ccccc3)c3ccccc3CN2CCCC(CN)NCc2ccccc2)cc1 (stereo not shown) [TRG 2412-24] |  |  | IC50 [1]: 410 nM
38 | CCCCNc1ccc(C2C(CNC3CCCCC3)c3ccccc3CN2CCCCC(CN)NCCc2ccc(Br)cc2)cc1 (stereo not shown) [TRG 2411-91] |  |  | IC50 [2]: 640 nM

Row | SMILES | % Disp. MC-1 10 μM (first of duplicate) [%] | % Disp. MC-1 10 μM (second of duplicate) [%] | other results
39 | COc1ccc(C2C(CNC3CCCCC3)c3ccccc3CN2CCN)cc1S(=O)(=O)O (stereo not shown) [TRG 2405-88] | 5.5 | 0 | 
40 | CCNc1ccc(C2C(CN)c3ccccc3CN2CCCCC(CN)NCc2ccc(Cl)cc2)cc1 (stereo not shown) [TRG 2411-67] |  |  | IC50 [2]: 210 nM
41 | CNC(CNC(CN)CCCCN1Cc2ccccc2C(CNC2CCCCC2)C1c1ccc(-c2ccccc2)cc1)Cc1ccccc1 (stereo not shown) [TRG 2411-17] |  |  | IC50 [2]: 390 nM
42 | NCCN1Cc2ccccc2C(CNC2CCCCC2)C1c1ccc2ccccc2c1 (stereo not shown) [TRG 2405-20] | 59.8 | 53.6 | 
43 | CCNC(CN)CCCCN1Cc2ccccc2C(CN)C1c1ccc(-c2ccccc2)cc1 (stereo not shown) [TRG 2411-24] |  |  | IC50 [2]: 530 nM
44 | CCNc1ccc(C2C(CNC3CCCCC3)c3ccccc3CN2CCCC(CN)NCc2ccc(Cl)cc2)cc1 (stereo not shown) [TRG 2411-170] |  |  | IC50 [1]: 130 nM
45 | CCOc1ccc(C2C(CNCCc3ccccc3)c3ccccc3CN2CCCCC(CN)NCCc2ccccc2)cc1 (stereo not shown) [TRG 2412-5] |  |  | IC50 [1]: 490 nM
46 | NCCNC(CN)CCCN1Cc2ccccc2C(CNCCc2ccccc2)C1c1ccc(-c2ccccc2)cc1 (stereo not shown) [TRG 2411-118] |  |  | IC50 [2]: 350 nM
47 | CCCCNc1ccc(C2C(CNC3CCCCC3)c3ccccc3CN2CCCC(CN)NCCCC)cc1 (stereo not shown) [TRG 2411-205] |  |  | IC50 [1]: 250 nM
48 | NCCN1Cc2ccccc2C(CNC2CCCCC2)C1c1ccc(F)c(F)c1F (stereo not shown) [TRG 2405-6] | 45.7 | 50 | 
49 | CNC(CN)CCCCN1Cc2ccccc2C(CNC2CCCCC2)C1c1ccc(C)cc1 (stereo not shown) [TRG 2405-249] |  |  | % Disp. of 125I-HP 467 (first of duplicate): 82.3%; % Disp. of 125I-HP 467 (second of duplicate): 83%
50 | NCCN1Cc2ccccc2C(CNC2CCCCC2)C1c1c(F)cccc1Cl (stereo not shown) [TRG 2405-14] | 34.2 | 29.6 | 
51 | NCCN1Cc2ccccc2C(CNC2CCCCC2)C1c1cccc(Oc2ccccc2)c1 (stereo not shown) [TRG 2405-50] | 61.9 | 50.8 | 
52 | CCCOc1ccc(C2C(CNC3CCCCC3)c3ccccc3CN2CC(CN)NC)cc1 (stereo not shown) [TRG 2405-163] | 62.4 | 58.1 | 
53 | CNC(CN)CCCCN1Cc2ccccc2C(CNC2CCCCC2)C1c1ccsc1 (mixture of isomers) [TRG 2405-233] |  |  | % Disp. of 125I-HP 467 (first of duplicate): 53.6%; % Disp. of 125I-HP 467 (second of duplicate): 42.8%
54 | CSc1ccc(C2C(CNC3CCCCC3)c3ccccc3CN2CCN)cc1 (stereo not shown) [TRG 2405-57] | 17.4 | 42.6 | 
55 | NCCNC(CN)CCCN1Cc2ccccc2C(CN)C1c1ccc(-c2ccccc2)cc1 (stereo not shown) [TRG 2411-141] |  |  | IC50 [2]: 1150 nM
56 | CCCCNc1ccc(C2C(CN)c3ccccc3CN2CCCCC(CN)N2CCCC2)cc1 (stereo not shown) [TRG 2411-103] |  |  | IC50 [2]: 20 nM
